Columns and labels:
Format in all cases: cell-based
[1] = tested on: Citrobacter strains; assay: Colony coloration on supplemented Trypticase Soy medium with cellobiose (text summary)
Description: (§1) Various concentrations of cellobiose (0-0.1-1-5-10 g/l) are added to Trypticase Soy medium (bioMérieux) supplemented with 5-bromo-6-chloro-3-indolyl-beta-galactoside at 50 mg/l and with 5-bromo-4-chloro-3-indolyl-beta-glucoside at 50 mg/l. These media are distributed in a proportion of 20 ml per Petri dish. Microorganisms derived from the applicant's collection were inoculated on these media by semi-quantitative isolation of 10 μl of a suspension at 0.5 McFarland, diluted to 1/20. The dishes were incubated at 37° C. for 48 hours. The colonies formed were examined visually after 24 and 48 hours of incubation. The coloration of these colonies was noted.

[2] = tested on: Klebsiella pneumoniae 111; assay: Colony coloration on supplemented Trypticase Soy medium with cellobiose; details: 37° C.
Description: as §1

[3] = tested on: Citrobacter freundii 031; assay: as above; details: 37° C.
Description: as §1

[4] = tested on: Escherichia coli 018; assay: as above; details: 37° C.
Description: as §1

[5] = tested on: Citrobacter freundii 022; assay: as above; details: 37° C.
Description: as §1

[6] = tested on: Escherichia coli 003; assay: as above; details: 37° C.
Description: as §1

[7] = tested on: Citrobacter freundii 104; assay: as above; details: 37° C.
Description: as §1

[8] = tested on: Serratia marcescens 112; assay: as above; details: 37° C.
Description: as §1

[9] = tested on: Enterococcus faecalis 117; assay: as above; details: 37° C.
Description: as §1

[10] = tested on: Citrobacter strains; assay: Colony coloration on CPS ID 3 medium with cellobiose (text summary); details: in the presence of cellobiose
Description: (§2) Various concentrations of cellobiose (0-100-350-1000 mg/l) are added to the CPS ID 3 medium (bioMérieux). These media contain 6-chloro-3-indolyl-beta-glucuronide at 250 mg/l and 5-bromo-4-chloro-3-indolyl-beta-glucoside at 50 mg/l. These media are distributed in a proportion of 20 ml per Petri dish. Microorganisms derived from the applicant's collection were inoculated on these media by semi-quantitative isolation of 10 μl of a suspension at 0.5 McFarland, diluted to 1/20. The dishes were incubated at 37° C. for 48 hours. The colonies formed were examined visually after 24 and 48 hours of incubation. The coloration of these colonies was noted.

[11] = tested on: Klebsiella pneumoniae 111; assay: Colony coloration on CPS ID 3 medium with cellobiose; details: 37° C.
Description: as §2

[12] = tested on: Citrobacter freundii 031; assay: as above; details: 37° C.
Description: as §2

[13] = tested on: Citrobacter freundii 022; assay: as above; details: 37° C.
Description: as §2

[14] = tested on: Escherichia coli 003; assay: as above; details: 37° C.
Description: as §2

[15] = tested on: Escherichia coli 407; assay: as above; details: 37° C.
Description: as §2

[16] = tested on: Citrobacter freundii 104; assay: as above; details: 37° C.
Description: as §2

[17] = tested on: Serratia marcescens 112; assay: as above; details: 37° C.
Description: as §2

[18] = tested on: Enterococcus faecalis 117; assay: as above; details: 37° C.
Description: as §2

- coloration of the colonies (beta-glucosidase activity expressed) ([1]; in the presence of cellobiose, supplemented Trypticase Soy medium): green to violet coloration
- colony coloration ([2]; cellobiose 0.1 g/l, 24 h): Green
- colony coloration ([2]; cellobiose 0.1 g/l, 48 h): Blue
- colony coloration ([2]; cellobiose 1 g/l, 24 h): Green
- colony coloration ([2]; cellobiose 1 g/l, 48 h): Blue
- colony coloration ([2]; cellobiose 5 g/l, 24 h): Turquoise
- colony coloration ([2]; cellobiose 5 g/l, 48 h): Blue
- colony coloration ([2]; cellobiose 10 g/l, 24 h): Turquoise
- colony coloration ([2]; cellobiose 10 g/l, 48 h): Blue
- colony coloration ([3]; cellobiose 0.1 g/l, 24 h): Violet
- colony coloration ([3]; cellobiose 0.1 g/l, 48 h): Green
- colony coloration ([3]; cellobiose 1 g/l, 24 h): Mauve
- colony coloration ([3]; cellobiose 1 g/l, 48 h): Green
- colony coloration ([3]; cellobiose 5 g/l, 24 h): Mauve
- colony coloration ([3]; cellobiose 5 g/l, 48 h): Green
- colony coloration ([3]; cellobiose 10 g/l, 24 h): Mauve
- colony coloration ([3]; cellobiose 10 g/l, 48 h): Mauve
- colony coloration ([5]; cellobiose 0.1 g/l, 24 h): Violet
- colony coloration ([5]; cellobiose 0.1 g/l, 48 h): Blue
- colony coloration ([5]; cellobiose 1 g/l, 24 h): Violet
- colony coloration ([5]; cellobiose 1 g/l, 48 h): Blue
- colony coloration ([5]; cellobiose 5 g/l, 24 h): Pink
- colony coloration ([5]; cellobiose 5 g/l, 48 h): Blue
- colony coloration ([5]; cellobiose 10 g/l, 24 h): Mauve
- colony coloration ([5]; cellobiose 10 g/l, 48 h): Mauve
- colony coloration ([7]; cellobiose 0.1 g/l, 24 h): Violet
- colony coloration ([7]; cellobiose 0.1 g/l, 48 h): Green
- colony coloration ([7]; cellobiose 1 g/l, 24 h): Violet
- colony coloration ([7]; cellobiose 1 g/l, 48 h): Green
- colony coloration ([7]; cellobiose 5 g/l, 24 h): Mauve
- colony coloration ([7]; cellobiose 5 g/l, 48 h): Green
- colony coloration ([7]; cellobiose 10 g/l, 24 h): Mauve
- colony coloration ([7]; cellobiose 10 g/l, 48 h): Mauve
- colony coloration ([8]; cellobiose 0.1 g/l, 24 h): Green
- colony coloration ([8]; cellobiose 0.1 g/l, 48 h): Blue
- colony coloration ([8]; cellobiose 1 g/l, 24 h): Green
- colony coloration ([8]; cellobiose 1 g/l, 48 h): Blue
- colony coloration ([8]; cellobiose 5 g/l, 24 h): Green
- colony coloration ([8]; cellobiose 5 g/l, 48 h): Blue
- colony coloration ([8]; cellobiose 10 g/l, 24 h): Turquoise
- colony coloration ([8]; cellobiose 10 g/l, 48 h): Blue
- colony coloration ([9]; cellobiose 0.1 g/l, 24 h): Turquoise
- colony coloration ([9]; cellobiose 0.1 g/l, 48 h): Turquoise
- colony coloration ([9]; cellobiose 1 g/l, 24 h): Turquoise
- colony coloration ([9]; cellobiose 1 g/l, 48 h): Turquoise
- colony coloration ([9]; cellobiose 5 g/l, 24 h): Turquoise
- colony coloration ([9]; cellobiose 5 g/l, 48 h): Turquoise
- colony coloration ([9]; cellobiose 10 g/l, 24 h): Turquoise
- colony coloration ([9]; cellobiose 10 g/l, 48 h): Turquoise
- coloration of the colonies (beta-glucosidase activity expressed) [10]: green to violet coloration
Compound: O=C[C@H](O)[C@@H](O)[C@H](O[C@@H]1O[C@H](CO)[C@@H](O)[C@H](O)[C@H]1O)[C@H](O)CO [Cellobiose, cellobiose]
- differentiation of C. freundii from E. coli ([1]; cellobiose concentrations above 5 g/l): less marked
- colony coloration ([4]; cellobiose 0.1 g/l, 24 h): Mauve
- colony coloration ([4]; cellobiose 0.1 g/l, 48 h): Mauve
- colony coloration ([4]; cellobiose 1 g/l, 24 h): Mauve
- colony coloration ([4]; cellobiose 1 g/l, 48 h): Mauve
- colony coloration ([4]; cellobiose 5 g/l, 24 h): Mauve
- colony coloration ([4]; cellobiose 5 g/l, 48 h): Mauve
- colony coloration ([4]; cellobiose 10 g/l, 24 h): Mauve
- colony coloration ([4]; cellobiose 10 g/l, 48 h): Mauve
- colony coloration ([6]; cellobiose 0.1 g/l, 24 h): Mauve
- colony coloration ([6]; cellobiose 0.1 g/l, 48 h): Mauve
- colony coloration ([6]; cellobiose 1 g/l, 24 h): Mauve
- colony coloration ([6]; cellobiose 1 g/l, 48 h): Mauve
- colony coloration ([6]; cellobiose 5 g/l, 24 h): Mauve
- colony coloration ([6]; cellobiose 5 g/l, 48 h): Mauve
- colony coloration ([6]; cellobiose 10 g/l, 24 h): Mauve
- colony coloration ([6]; cellobiose 10 g/l, 48 h): Mauve
- colony coloration ([11]; cellobiose 100 mg/l, 24 h): Turquoise
- colony coloration ([11]; cellobiose 100 mg/l, 48 h): Turquoise
- colony coloration ([11]; cellobiose 350 mg/l, 24 h): Turquoise
- colony coloration ([11]; cellobiose 350 mg/l, 48 h): Turquoise
- colony coloration ([11]; cellobiose 1000 mg/l, 24 h): Turquoise
- colony coloration ([11]; cellobiose 1000 mg/l, 48 h): Turquoise
- colony coloration ([12]; cellobiose 100 mg/l, 24 h): Green
- colony coloration ([12]; cellobiose 100 mg/l, 48 h): Green
- colony coloration ([12]; cellobiose 350 mg/l, 24 h): Green
- colony coloration ([12]; cellobiose 350 mg/l, 48 h): Green
- colony coloration ([12]; cellobiose 1000 mg/l, 24 h): Colorless
- colony coloration ([12]; cellobiose 1000 mg/l, 48 h): Green
- colony coloration ([13]; cellobiose 100 mg/l, 24 h): Violet
- colony coloration ([13]; cellobiose 100 mg/l, 48 h): Violet
- colony coloration ([13]; cellobiose 350 mg/l, 24 h): Violet
- colony coloration ([13]; cellobiose 350 mg/l, 48 h): Violet
- colony coloration ([13]; cellobiose 1000 mg/l, 24 h): Violet
- colony coloration ([13]; cellobiose 1000 mg/l, 48 h): Violet
- colony coloration ([14]; cellobiose 100 mg/l, 24 h): Pink
- colony coloration ([14]; cellobiose 100 mg/l, 48 h): Red
- colony coloration ([14]; cellobiose 350 mg/l, 24 h): Pink
- colony coloration ([14]; cellobiose 350 mg/l, 48 h): Red
- colony coloration ([14]; cellobiose 1000 mg/l, 24 h): Pink
- colony coloration ([14]; cellobiose 1000 mg/l, 48 h): Red
- colony coloration ([15]; cellobiose 100 mg/l, 24 h): Pink
- colony coloration ([15]; cellobiose 100 mg/l, 48 h): Red
- colony coloration ([15]; cellobiose 350 mg/l, 24 h): Pink
- colony coloration ([15]; cellobiose 350 mg/l, 48 h): Red
- colony coloration ([15]; cellobiose 1000 mg/l, 24 h): Pink
- colony coloration ([15]; cellobiose 1000 mg/l, 48 h): Red
- colony coloration ([16]; cellobiose 100 mg/l, 24 h): Green
- colony coloration ([16]; cellobiose 100 mg/l, 48 h): Green
- colony coloration ([16]; cellobiose 350 mg/l, 24 h): Green
- colony coloration ([16]; cellobiose 350 mg/l, 48 h): Green
- colony coloration ([16]; cellobiose 1000 mg/l, 24 h): Green
- colony coloration ([16]; cellobiose 1000 mg/l, 48 h): Green
- colony coloration ([17]; cellobiose 100 mg/l, 24 h): Turquoise
- colony coloration ([17]; cellobiose 100 mg/l, 48 h): Turquoise
- colony coloration ([17]; cellobiose 350 mg/l, 24 h): Turquoise
- colony coloration ([17]; cellobiose 350 mg/l, 48 h): Turquoise
- colony coloration ([17]; cellobiose 1000 mg/l, 24 h): Turquoise
- colony coloration ([17]; cellobiose 1000 mg/l, 48 h): Turquoise
- colony coloration ([18]; cellobiose 100 mg/l, 24 h): Turquoise
- colony coloration ([18]; cellobiose 100 mg/l, 48 h): Turquoise
- colony coloration ([18]; cellobiose 350 mg/l, 24 h): Turquoise
- colony coloration ([18]; cellobiose 350 mg/l, 48 h): Turquoise
- colony coloration ([18]; cellobiose 1000 mg/l, 24 h): Turquoise
- colony coloration ([18]; cellobiose 1000 mg/l, 48 h): Turquoise

Source: patent publication US8216802B2, “Detection medium for gram negative bacteria” (Biomerieux, priority 2007, dated 2012)
